≈ marks a conversion by molar mass, not a printed value.
What was measured:
Type in all cases: cell-based
Chlorella fusca (CF) = assay: Algistatic finish (SM 023) of pure acrylate house paint; set-up: key to Surface colonization: −: no growth; +: some growth; ++: moderate growth; +++: strong growth
Procedure: (§1) In separate batches, the test concentrations of the active compounds/products were incorporated into the house paint, and the fungicidal and/or algistatic finish was determined using the stated test methods.
(§2) Incorporation and testing were carried out according to the methods SM 022 and SM 023 below.
This laboratory method was employed for determining the resistance of house coatings to colonization by algae. For this method, house coatings on standardized paper are used as test substrate and Chlorella fusca is used as test alga. It is furthermore possible to use pure cultures of other algae species of practical relevance.
The experiments were carried out in Petri dishes on agar nutrient media.
50 g of the material to be finished were, in separate batches, mixed with various concentrations of the algicide to be examined and homogenized for 3-5 min using a basket stirrer.
(§3) Paper carrier materials having the dimensions 90×270 mm (Schleicher & Schüll No. 2589 B/X 24078) were coated with the test material. The paint and/or render samples were coated to a wet-layer thickness of 250 μm by knife coating. […] In the case of renders, the layer thickness depends, as in practice, on the particle size. The coated carrier materials, hereinbelow referred to as test bodies, were subsequently dried in a horizontal position for five days.
(§4) […] The cross section of the container for the watering in the direction of flow was 1000±500 cm^2.
From the pretreated test bodies, three sample bodies having a diameter of 5 cm were punched out and sterilized in a Co^60 source using at least 10 kGy.
Aseptically, the samples were placed onto the algae nutrient media, and the centre of the sample was inoculated with 5 ml of each algae suspension.
The mixture of the algae suspensions was spread on the surface using a Drigalski spatula or an offset sterile glass rod.
During the growth phase at 22±2° C., the coated samples in the Petri dishes were irradiated with light of an intensity of about 1000 Lux (customary fluorescent tubes, type D 67 daylight). A cycle of in each case 12 hours of irradiation and 12 hours of storage in the dark was used.
The colonization of the samples by algae was examined and evaluated after two weeks. Evaluation was carried out visually. The evaluation of the samples was based on the following evaluation scale:
No growth of algae on the test bodies
Formation of an inhibitory zone or growth of algae on the nutrient medium up to the edge of the test bodies
Visible colonization of the test body by algae

Pseudomonas aeruginosa = assay: Serial dilution test according to DGHM (MIC); conditions: aqueous 2% by weight strength solution in fully deionized water; unit assumed
From the text: (§5) Solutions of in each case 2% strength by weight in fully deionized water were examined against selected bacteria and/or yeasts and/or fungi and/or algae using the serial dilution test according to DGHM [German Society for Hygiene and Microbiology]. MIC values of the aqueous 2% by weight strength solutions: […]

Alternaria alternata = assay: Serial dilution test according to DGHM (MIC); conditions: aqueous 2% by weight strength solution in fully deionized water; unit assumed
From the text: as §5

Chlorella fusca = assay: Serial dilution test according to DGHM (MIC); conditions: aqueous 2% by weight strength solution in fully deionized water; unit assumed
From the text: as §5

Rhodotorula mucilaginosa = assay: Serial dilution test according to DGHM (MIC); conditions: aqueous 2% by weight strength solution in fully deionized water; unit assumed
From the text: as §5

Penicillium funiculosum = assay: Serial dilution test according to DGHM (MIC); conditions: aqueous 2% by weight strength solution in fully deionized water; unit assumed
From the text: as §5

Asperg. niger = assay: Serial dilution test according to DGHM (MIC); conditions: aqueous 2% by weight strength solution in fully deionized water; unit assumed
From the text: as §5

Fusarium oxysporum = assay: Serial dilution test according to DGHM (MIC); conditions: aqueous 2% by weight strength solution in fully deionized water; unit assumed
From the text: as §5

E. coli = assay: Serial dilution test according to DGHM (MIC); conditions: aqueous 2% by weight strength solution in fully deionized water; unit assumed
From the text: as §5

Cand. albicans = assay: Serial dilution test according to DGHM (MIC); conditions: aqueous 2% by weight strength solution in fully deionized water; unit assumed
From the text: as §5

[1] = test system: Penicillium funiculosum (PF); assay: Fungicidal finish (SM 022) of pure acrylate house paint; conditions: for Fungicidal finish, colonization rating PF: without stress due to leaching
Procedure: as §1, §2
This laboratory method was used to determine the resistance of house coatings to fungal attack. For the method, house coatings on standardized paper were used as test substrate, and Aspergillus niger (ATCC 6275) and Penicillium funiculosum (ATCC 36839) were used as test fungi. The experiments were carried out in Petri dishes on dextrose nutrient medium.
50 g of the material to be finished were, in separate batches, mixed with various concentrations of the fungicide to be examined and homogenized for 3-5 min using a basket stirrer.
as §3, with “depended,” for “depends,”
as §4
From the pretreated test bodies, sample bodies having a diameter of 5 cm were punched out and sterilized in a Co^60 source using at least 10 kGy.
The Sabouraud dextrose agar, which had solidified in the Petri dish, was inoculated with 0.2 ml of spore suspension (10^7 spores/ml) and plated out using a sterile Drigalski spatula or an offset sterile glass rod.
The pretreated sample bodies were then evenly placed onto the inoculated surface of the nutrient medium using a pair of tweezers, making sure that the entire surface of the sample body was in contact with the surface of the nutrient medium. The sample was subsequently incubated at 30±2° C. for three weeks. For other test germs, the incubation temperature had to be adapted to achieve optimum growth.
After one, two and three weeks, the sample bodies were examined for fungal growth. Evaluation was carried out visually or—if this was required to exclude foreign infections—using a magnifying glass. If the extent of the colonization by foreign organisms observed considerably interfered with the evaluation, the experiment could not be evaluated and was repeated. The evaluation of the samples was based on the following evaluation scale:
00—entire plate free from colonization*
0—zone formation (no colonization around the sample)*
(0)—fungal colonization up to the sample*
1—only the sample edge is colonized*
2—the sample is colonized from the edge inwards (less than 25%)
3—the sample surface is colonized by individual colonies (25-75%)
4—the sample surface is colonized extensively (75% and more, but not the entire surface)
5—the sample surface is colonized completely (100%)
*Note: Samples evaluated as 00, 0, (0) and 1 can be referred to as “being effectively finished against fungal growth”.

Aspergillus niger (AN) = assay: as above; conditions: without stress due to leaching
[2] = without stress due to 72 hours leaching (so in the source), use concentration 0.5%
[3] = without stress due to 72 hours leaching (so in the source), use concentration 1.0%
[4] = without stress due to 72 hours leaching (so in the source), use concentration 2.0%
[5] = without stress due to leaching, use concentration 0.5%
[6] = without stress due to leaching, use concentration 1.0%
[7] = without stress due to leaching, use concentration 2.0%

## CC1CN(CN2COC(C)C2)CO1 (stereo not drawn) [Mar 71, 3,3′-methylenebis-(5-methyloxazolidine)]
Chlorella fusca (CF); with stress due to leaching
  Algicidal action (in words): little algicidal action in practice
Chlorella fusca (CF); [2]
  Inhibitory zone: 0 mm
  Surface colonization: ++
Chlorella fusca (CF); [3]
  Inhibitory zone: 0 mm
  Surface colonization: ++
Chlorella fusca (CF); [4]
  Inhibitory zone: 0 mm
  Surface colonization: +++
Chlorella fusca (CF); [5]
  Inhibitory zone: 12 mm
  Surface colonization: −
Chlorella fusca (CF); [6]
  Inhibitory zone: >18 mm
  Surface colonization: −
Chlorella fusca (CF); [7]
  Inhibitory zone: >18 mm
  Surface colonization: −
Chlorella fusca (CF); without stress due to leaching, use concentration from 0.5 to 2% by weight
  Algicidal activity (in words): good algicidal activity
Pseudomonas aeruginosa
  MIC value PS: 6.25 µg/mL (≈ 33.6 µM)
Alternaria alternata
  MIC value AL: 6.25 µg/mL (≈ 33.6 µM)
Chlorella fusca
  MIC value CF: 0.39 µg/mL (≈ 2.09 µM)
Rhodotorula mucilaginosa
  MIC value RM: 3.12 µg/mL (≈ 16.8 µM)
Penicillium funiculosum
  MIC value PF: 1.56 µg/mL (≈ 8.38 µM)
Asperg. niger
  MIC value AN: 6.25 µg/mL (≈ 33.6 µM)
Fusarium oxysporum
  MIC value FO: 1.56 µg/mL (≈ 8.38 µM)
E. coli
  MIC value EC: 6.25 µg/mL (≈ 33.6 µM)
Cand. albicans
  MIC value CA: > 6.25 µg/mL
[1]; house paint test
  Fungicidal activity (in words), PF: no fungicidal activity in practice
[1]; use conc. 0.5% W/W, 1. week
  Fungicidal finish, colonization rating PF: 5 (the sample surface is colonized completely (100%))
[1]; use conc. 0.5% W/W, 2. week
  Fungicidal finish, colonization rating PF: 5 (the sample surface is colonized completely (100%))
[1]; use conc. 1.0% W/W, 1. week
  Fungicidal finish, colonization rating PF: 5 (the sample surface is colonized completely (100%))
[1]; use conc. 1.0% W/W, 2. week
  Fungicidal finish, colonization rating PF: 5 (the sample surface is colonized completely (100%))
[1]; use conc. 2.0% W/W, 1. week
  Fungicidal finish, colonization rating PF: 3 (the sample surface is colonized by individual colonies (25%-75%))
[1]; use conc. 2.0% W/W, 2. week
  Fungicidal finish, colonization rating PF: 4 (the sample surface is colonized extensively (75% and more, but not the entire surface))
Aspergillus niger (AN); use conc. 0.5% W/W, 1. week
  Fungicidal finish, colonization rating AN: 5 (the sample surface is colonized completely (100%))
Aspergillus niger (AN); use conc. 0.5% W/W, 2. week
  Fungicidal finish, colonization rating AN: 5 (the sample surface is colonized completely (100%))
Aspergillus niger (AN); use conc. 1.0% W/W, 1. week
  Fungicidal finish, colonization rating AN: 5 (the sample surface is colonized completely (100%))
Aspergillus niger (AN); use conc. 1.0% W/W, 2. week
  Fungicidal finish, colonization rating AN: 5 (the sample surface is colonized completely (100%))
Aspergillus niger (AN); use conc. 2.0% W/W, 1. week
  Fungicidal finish, colonization rating AN: 5 (the sample surface is colonized completely (100%))
Aspergillus niger (AN); use conc. 2.0% W/W, 2. week
  Fungicidal finish, colonization rating AN: 5 (the sample surface is colonized completely (100%))
